# In patent US20240336567A1, “PESTICIDAL AND HERBICIDAL COMPOUNDS AND METHODS OF USE THEREOF” (AG Plenus Ltd, priority 2021, published 2024):
# Key:
# [1] = in vitro thermal shift (binding of compound to the target); settings: thermal shift caused by binding of the compound to the (unnamed) target
# Arabidopsis thaliana = assay: HTPS (high throughput on soil) - Dicot - Post-emergence; type: in vivo; settings: N/A: not active
# Procedure: (§1) Arabidopsis thaliana seeds were sown in 96 well plates filled with irrigated Sweet sand (10%>clay) that is washed from salts and minerals using tap water. 5-10 seeds were sown in the center of each well. 7-8 days post sowing, at 2 true leaves stage, thinning out was performed to ensure that compound application is done on a single plant per well. The plates were placed in a controlled greenhouse in a random order inside a bath which allows flooding irrigation with tap water supplemented with a fertilizer. Applied compounds were dissolved into a final solution of 50% acetone, 49.9% DDW, 0.1% tween-20. A 96 well plate was used as a stock plate for preparing application solutions for 8 repeats. Each row contained different concentrations per chemical. Maximal concentration for application was 1.5 Kg/Ha and dilution factor is 2.5. Chemical application was performed one day after thinning out in a chemical hood. 5 μL applied on first two true leaves in each well using 12 channel pipettes. Data collection: RGB (red, green, blue) data for green area per well was documented using camera. Data is collected at a few time points during the experiment: one day after thinning and before chemical application, two-, six- or nine-days post application. During the last two documentations, visual phenotyping was performed. Data analysis: Given RGB results and visual phenotype scores, a student t-test conducted to compare between treatment and control performance for continuous data (RGB) and Fisher exact test to analyze the non-continuous data (phenotypic scores). Dose-Response curves are generated for each treatment to infer ED50 and max. inhibition parameters, using treatment's log concentration range as the […] variable and normalized green area. Plate imaging performed at 11 and 18 DAA. RGB data for green area per well was documented and used to extract % inhibition. Dose-Response curves were built for each treatment to infer ED50, ED75 and ED90 parameters, using treatment's log concentration range as the independent variable and normalized green area as the dependent variable. Treatments were compared to controls performance given RGB results and using student's t-test (p-val≤0.05).
# Eragrostis teff = assay: HTPS - Monocot - Pre-emergence; type: in vivo; settings: N/A: not active
# Procedure: as §1, with “area. These experiments are conducted similarly except that either Arabidopsis thaliana or Eragrostis teff seeds were sowed (5-10 or 5-7, respectively), plant thinning out was not performed, compound dissolved into a final solution of 50% acetone, 49.9% DDW, compound application was done at 30 μL volume per well directly on sowed soil before plant emergence and data was collected 10 or 7 days after chemical application on dicot or monocot plants, respectively.” for “area.”
# SETVI = assay: In-planta LTP pre-emergence, visual phenotype; type: in vivo, Setaria viridis; settings: Setaria viridis, 432 h, monocot, read-out: IG Inhibited growth (% effect)
# Procedure: (§2) A basic panel of 8 weed species (Table 3) were sowed in 4×4×7 cm plastic pots containing inert sand (Sweet sand), intensively washed using osmosis water. Each specie was sowed in a separate pot. In each pot 10-15 seeds were sowed according to the specie viability. Sowing was performed one day before application. The plants were grown for 21 days in a controlled greenhouse (26±2° C. day 20±2° C. night). Hood irrigation (tap water+Shefer 5:3:8 8 mM) was given at a 50% water content by weight. Compounds were soluble in water (DDW), and commercial herbicide control was soluble in formulation B (Table 4). Application was conducted with an industrial sprayer (TeeJet 6502E nozzle) at a rate of 2 kg/ha and spray volume of […]. Pre-emergence advanced dose response experiment application was conducted at six rates between 1-0.0312 kg/ha and spray volume of […]. Percentage of emergence was evaluated at 15 DAA. Visual phenotyping was recorded using a scale of 0-6 (0: no visible effect, 6: maximum effect) at 18 DAA. All experiments included an untreated control, a solvent control and a positive control (commercial herbicide A.I.). Statistical analysis for visual phenotyping determined by a median value of ≥3.5 and Fisher test (pval≤0.05). Statistical analysis for plant emergence determined by % emergence ≥50 and T test (pval≤0.05), as well as Wilcox test (pval≤0.05).
# LOLPE = assay: In-planta LTP pre-emergence, visual phenotype; type: in vivo, Lolium perenne; settings: monocot
# Procedure: as §2
# POAAN = assay: In-planta LTP pre-emergence, visual phenotype; type: in vivo, Poa annua; settings: monocot
# Procedure: as §2
# AMAPA = assay: In-planta LTP pre-emergence, visual phenotype; type: in vivo, Amaranthus palmeri; settings: Amaranthus palmeri, 432 h, dicot, read-out: IG Inhibited growth (% effect)
# Procedure: as §2
# MATCA = assay: In-planta LTP post-emergence, visual phenotype; type: in vivo, Matricaria chamomilla; settings: dicot
# Procedure: A basic panel of eight weed species (Table 3) sowed in 4×4×7 cm plastic pots containing a garden mix (klasmann). Each specie was sowed in a separate pot. In each pot, 10-15 seeds were sowed according to the specie viability. Timing of application determined at a 1-2 true leaf stage. The plants grew for 30 days in a controlled greenhouse (26±2° C. day, 20±2° C. night). Hood irrigation (tap water+Shefer 5:3:8 8 mM) was given at a 50% water content by weight. Two days before application, the tested plants thinned down to three plants per pot. Compounds were soluble in water (DDW), and commercial herbicide control was soluble in formulation B (Table 4). […] Plants were evaluated at 3 time points (4, 8, 12 days after application (DAA)). At each time point, visual phenotyping was recorded using a scale of 0-6 (0: no visible effect, 6: maximum effect). […]
# Post-emergence advanced dose response experiment included 4 species: SETVI, ECHCO, AMAPA, ABUTH (Tables 3, 5). […] Plants were evaluated at 4 time points (6, 12, 18 and 26 DAA). At each time point, visual phenotyping was recorded using a scale of 0-6 (0: no visible effect, 6: maximum effect). […]
# Post-emergence advanced wide panel experiment included 24 weed species (Table 5). […] Visual phenotyping was recorded at 4, 11, 17 and 20 DAA using a scale of 0-6 (0: no visible effect, 6: maximum effect). […]
smiles,measurement,setting,value
NCCOc1ccc(F)c(C(=O)O)c1 [Compound 129],in vitro Thermal Shift,[1],9 °C
same,Emax,Arabidopsis thaliana; read-out: HTPS - Dicot - Post Max effect,81%
same,HTPS - Dicot - Post ED50,Arabidopsis thaliana; from normalized green area,45 g/ha
same,HTPS - Monocot - Pre ED50,Eragrostis teff,550 g/ha
same,Emax,Eragrostis teff; read-out: HTPS - Monocot - Pre Max effect,86%
same,pest or weed control at 2000 g/ha,SETVI,40%
same,IG Inhibited growth (% effect),LOLPE,IG (40) %
same,pest or weed control at 2000 g/ha,"POAAN; Poa annua, 432 h, read-out: IG Inhibited growth (% effect)",80%
same,DE Disturbed emergence (% effect),POAAN,DE (80) %
same,pest or weed control at 2000 g/ha,AMAPA,40%
same,LOD Lodging (% effect),MATCA,LOD^3 (40) %
